Here are results for three compounds from ChEMBL document CHEMBL6096719, “Kidney Targeting Smart Antibiotic Discovery: Multimechanism Pleuromutilins for Pyelonephritis Therapy” (J Med Chem, 2025).

In brackets after ≈: the same amount, converted by molar mass.

Series [1] in a line: Aqueous solubility of the compound incubated for 12 hrs by UV-Vis spectrophotometry. Particulars: buffer; call rule not given here. The format is physicochemical.
For series [2], the system named is Staphylococcus aureus. As to the kind of experiment: Antibacterial activity against methicillin-resistant Staphylococcus aureus 171 assessed as inhibition of bacterial growth incubated for 24 hrs by broth microdilution method. The format is functional. (In broth dilution the organism is exposed to a series of concentrations in liquid medium.)
In series [3] the test system is Staphylococcus aureus. Put plainly: Antibacterial activity against methicillin-resistant Staphylococcus aureus 575 assessed as inhibition of bacterial growth incubated for 24 hrs by broth microdilution method. The format is functional.
Series [4] deals with Staphylococcus aureus. Put plainly: Antibacterial activity against methicillin-resistant Staphylococcus aureus 206 assessed as inhibition of bacterial growth incubated for 24 hrs by broth microdilution method. Type of series: functional.
In series [5] the test system is Staphylococcus aureus. As to the kind of experiment: Antibacterial activity against methicillin-resistant Staphylococcus aureus 222 assessed as inhibition of bacterial growth incubated for 24 hrs by broth microdilution method. The format is functional.
For series [6], the system named is Staphylococcus aureus. As to the kind of experiment: Antibacterial activity against methicillin-resistant Staphylococcus aureus 596 assessed as inhibition of bacterial growth incubated for 24 hrs by broth microdilution method. The format is functional.
The test system of series [7] is Enterococcus. As to the kind of experiment: Antibacterial activity against vancomycin-resistant Enterococcus 80 assessed as inhibition of bacterial growth incubated for 24 hrs by broth microdilution method. Type of series: functional.
Series [8] deals with Pseudomonas aeruginosa. Put plainly: Antibacterial activity against multidrug-resistant Pseudomonas aeruginosa 126 assessed as inhibition of bacterial growth incubated for 24 hrs by broth microdilution method. The format is functional.
Series [9] deals with Klebsiella pneumoniae. As to the kind of experiment: Antibacterial activity against multidrug-resistant Klebsiella pneumoniae 893 assessed as inhibition of bacterial growth incubated for 24 hrs by broth microdilution method. Type of series: functional.
For series [10], the system named is Acinetobacter baumannii. Put plainly: Antibacterial activity against carbapenem-resistant Acinetobacter baumannii 882 assessed as inhibition of bacterial growth incubated for 24 hrs by broth microdilution method. Type of series: functional.
Series [11] is described as follows: Cytotoxicity against human HepG2 cells assessed as reduction in cell viability incubated for 24 hrs by CCK8 assay. Type of series: toxicity, cell-based. For orientation: Formazan colour is commonly taken as a measure of viable cells.
A short description of series [12]: Cytotoxicity against human HEK293 cells assessed as reduction in cell viability incubated for 24 hrs by CCK8 assay. The format is toxicity, cell-based.
A short description of series [13]: Cytotoxicity against human A549 cells assessed as reduction in cell viability incubated for 24 hrs by CCK8 assay. The format is toxicity, cell-based.
The subject of series [14] is Staphylococcus aureus. As to the kind of experiment: Antibacterial activity against methicillin-resistant Staphylococcus aureus ATCC33591 infected in systemic intraperitoneal infection Kunming mouse model assessed as decrease in inflammation, neutrophil infiltration, alveolar structure destruction, leukocyte infiltration, interstitial thickening in lungs at 5 mg/kg, ip treated at 1 hr post-infection and measured after 7 days by Hematoxylin-Eosin staining based analysis. The conditions noted are these: time 7.0 day. Type of series: functional, organism-based.

Series [15] deals with Staphylococcus aureus. Put plainly: Antibacterial activity against methicillin-resistant Staphylococcus aureus ATCC33591 infected in systemic intraperitoneal infection Kunming mouse model assessed as decrease in inflammation and neutrophil infiltration in liver at 5 mg/kg, ip treated at 1 hr post-infection and measured after 7 days by Hematoxylin-Eosin staining based analysis. The format is functional, organism-based. The conditions noted are these: time 7.0 day.

The test system of series [16] is Staphylococcus aureus. As to the kind of experiment: Antibacterial activity against methicillin-resistant Staphylococcus aureus ATCC33591 infected in systemic intraperitoneal infection Kunming mouse model assessed as decrease in inflammation and neutrophil infiltration in kidney at 5 mg/kg, ip treated at 1 hr post-infection and measured after 7 days by Hematoxylin-Eosin staining based analysis. The format is functional, organism-based. Particulars: time 7.0 day.

The test system of series [17] is Staphylococcus aureus. As to the kind of experiment: Antibacterial activity against methicillin-resistant Staphylococcus aureus ATCC33591 infected in systemic intraperitoneal infection Kunming mouse model assessed as decrease in inflammation, neutrophil infiltration and disordered spleen structure at 5 mg/kg, ip treated at 1 hr post-infection and measured after 7 days by Hematoxylin-Eosin staining based analysis. Particulars: time 7.0 day. The format is functional, organism-based.

Series [18] is described as follows: Toxicity against methicillin-resistant Staphylococcus aureus ATCC33591 infected systemic intraperitoneal infection Kunming mouse model assessed as animal's mortality at 5 mg/kg, ip treated at 1 hr post-infection and measured after 7 days. Type of series: organism-based. Particulars: in vivo, 168 h, time 7 day.
The test system of series [19] is Staphylococcus aureus. As to the kind of experiment: Antibacterial activity against methicillin-resistant Staphylococcus aureus ATCC 33591 assessed as inhibition of bacterial growth incubated for 24 hrs by broth microdilution method. Type of series: functional.
The subject of series [20] is Staphylococcus aureus. As to the kind of experiment: Antibacterial activity against methicillin-resistant Staphylococcus aureus ATCC 43300 assessed as inhibition of bacterial growth incubated for 24 hrs by broth microdilution method. The format is functional.
In series [21] the test system is Staphylococcus aureus. As to the kind of experiment: Antibacterial activity against Staphylococcus aureus ATCC 29213 assessed as inhibition of bacterial growth incubated for 24 hrs by broth microdilution method. Type of series: functional.
Series [22] has as its system Staphylococcus epidermidis. Put plainly: Antibacterial activity against methicillin-resistant Staphylococcus epidermidis ATCC 51625 assessed as inhibition of bacterial growth incubated for 24 hrs by broth microdilution method. Type of series: functional.
For series [23], the system named is Acinetobacter baumannii. As to the kind of experiment: Antibacterial activity against Acinetobacter baumannii ATCC 19606 assessed as inhibition of bacterial growth incubated for 24 hrs by broth microdilution method. Type of series: functional.
For series [24], the system named is Salmonella enterica. Put plainly: Antibacterial activity against Salmonella enterica ATCC 14028 assessed as inhibition of bacterial growth incubated for 24 hrs by broth microdilution method. The format is functional.
Series [25] deals with Escherichia coli. As to the kind of experiment: Antibacterial activity against Escherichia coli ATCC 25922 assessed as inhibition of bacterial growth incubated for 24 hrs by broth microdilution method. The format is functional.
The test system of series [26] is Escherichia coli. As to the kind of experiment: Antibacterial activity against Escherichia coli CMCC 44103 assessed as inhibition of bacterial growth incubated for 24 hrs by broth microdilution method. Type of series: functional.
The target in series [27] is Solute carrier family 22 member 1 (Homo sapiens, UniProt O15245). Put plainly: Inhibition of human OCT1 transfected in HEK293 cells assessed as decrease in intracellular ASP accumulation at 200 uM incubated for 10 mins followed by incubation with ASP for 5 mins by fluorescence based analysis. Type of series: cell-based. The conditions noted are these: hek293, 0.25 h, time 15 min.
Sequence of Solute carrier family 22 member 1 (O15245 whole entry): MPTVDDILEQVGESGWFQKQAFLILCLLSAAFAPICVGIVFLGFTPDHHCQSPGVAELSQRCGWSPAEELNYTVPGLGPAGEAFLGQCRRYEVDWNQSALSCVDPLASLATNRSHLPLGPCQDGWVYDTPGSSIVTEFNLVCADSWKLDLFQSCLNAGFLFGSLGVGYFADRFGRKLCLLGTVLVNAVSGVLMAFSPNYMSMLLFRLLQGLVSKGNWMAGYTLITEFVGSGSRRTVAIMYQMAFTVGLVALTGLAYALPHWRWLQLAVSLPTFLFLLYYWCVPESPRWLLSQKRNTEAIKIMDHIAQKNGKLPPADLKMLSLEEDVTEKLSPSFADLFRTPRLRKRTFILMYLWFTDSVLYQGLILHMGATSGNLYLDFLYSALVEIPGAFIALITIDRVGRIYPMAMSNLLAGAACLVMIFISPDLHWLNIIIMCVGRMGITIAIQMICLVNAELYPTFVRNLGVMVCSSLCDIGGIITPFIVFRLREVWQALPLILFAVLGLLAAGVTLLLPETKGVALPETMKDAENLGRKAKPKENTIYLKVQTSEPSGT

The target in series [28] is T1, Solute carrier family 22 member 2 (Homo sapiens, UniProt O15244).
T1 sequence (O15244 whole entry): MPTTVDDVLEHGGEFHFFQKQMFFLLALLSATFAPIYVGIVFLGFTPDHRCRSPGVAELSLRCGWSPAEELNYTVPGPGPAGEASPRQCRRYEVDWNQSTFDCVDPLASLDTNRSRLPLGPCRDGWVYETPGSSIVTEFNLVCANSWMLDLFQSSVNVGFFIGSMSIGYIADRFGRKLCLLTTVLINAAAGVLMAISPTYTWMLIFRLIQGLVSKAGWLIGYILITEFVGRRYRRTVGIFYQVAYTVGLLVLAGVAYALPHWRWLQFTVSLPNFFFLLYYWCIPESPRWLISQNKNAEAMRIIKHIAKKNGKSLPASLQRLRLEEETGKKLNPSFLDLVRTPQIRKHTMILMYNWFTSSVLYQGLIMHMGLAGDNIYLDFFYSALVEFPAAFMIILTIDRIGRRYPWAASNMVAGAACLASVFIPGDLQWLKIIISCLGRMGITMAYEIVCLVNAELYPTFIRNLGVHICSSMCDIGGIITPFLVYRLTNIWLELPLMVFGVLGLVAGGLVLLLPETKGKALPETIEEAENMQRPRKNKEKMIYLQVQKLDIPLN
As to the kind of experiment: Inhibition of human OCT2 transfected in HEK293 cells assessed as decrease in intracellular ASP accumulation at 100 uM incubated for 10 mins followed by incubation with ASP for 5 mins by fluorescence based analysis. Type of series: cell-based. The conditions noted are these: hek293, 0.25 h, time 15 min.

The term solubility denotes how much of the substance goes into solution per volume. Read a low solubility as little dissolved substance. The MIC is the lowest concentration found to suppress growth. By CC50 is commonly meant the concentration giving 50% cytotoxicity. On to `C=C[C@]1(C)C[C@@H](OC(=O)CSC(C)(C)CNC(=O)[C@H](N)C(C)C)[C@]2(C)[C@H](C)CC[C@]3(CCC(=O)[C@H]32)[C@@H](C)[C@@H]1O` [VALNEMULIN], for which the concentration in solution in [1] (solubility at 12 h) came to 218 µg/mL (≈ 386 µM). The MIC in series [2] is greater than 128 µg/mL; in series [3], 128 µg/mL (≈ 227 µM); in series [4], 64 µg/mL (≈ 113 µM); in series [5], 64 µg/mL (≈ 113 µM); in [6], greater than 128 µg/mL; in series [7] it was 64 µg/mL (≈ 113 µM). Besides, the MIC in series [8] was 64 µg/mL (≈ 113 µM); in series [9] it was 32 µg/mL (≈ 56.7 µM); in [10], 64 µg/mL (≈ 113 µM). Besides, the CC50 at 24 h was 77.3 µM in series [11], 65.4 µM in series [12] and 53.7 µM in series [13]. Further, the Activity entry in series [14] is listed as “Active; Slight Without Complete Recovery Observed”; in series [15] it was “Active; Slight Without Complete Recovery Observed”; in series [16], “Active; Slight Without Complete Recovery Observed”; in [17], “Active; Slight Without Complete Recovery Observed”; in [18], “Toxic”.
The compound `C=C[C@]1(C)C[C@@H](OC(=O)CSc2nc3cc[n+](Cc4ccc(C#N)cc4)cc3[nH]2)[C@]2(C)[C@H](C)CC[C@]3(CCC(=O)[C@H]32)[C@@H](C)[C@@H]1O.[Br-]` had a solubility at 12 h in [1] of 481 µg/mL. Also, the minimum inhibitory concentration (MIC) in series [19], in [20], in series [21], in [22], in series [23] and in [24] was less than 2 µg/mL throughout. The minimum inhibitory concentration (MIC) in series [25] is less than 2 µg/mL; in series [26] it was less than 2 µg/mL; in [2], 16 µg/mL; in series [3], 32 µg/mL; in series [4], 4 µg/mL; in series [5], 16 µg/mL. The MIC in series [6] stood at 8 µg/mL; in series [7] it was 2 µg/mL; in [8], 32 µg/mL; in [9], 16 µg/mL; in [10] it was 64 µg/mL. The values for the CC50 at 24 h in [11], in series [12] and in series [13] were 96.3 µM, greater than 100 µM and greater than 100 µM, respectively.
Take `CN(C)CCC=C1c2ccccc2CCc2ccccc21` [AMITRIPTYLINE]: the “inhibition (INH)” value in series [27] and in series [28] was “Active” throughout.
